Measurements as given in PubChem BioAssay AID2055 (NMMLSC, 2009).

The compounds below were run against Ras-related C3 botulinum toxin substrate 1 (Homo sapiens) (UniProt P63000) (assay: blockers of fluorescent GTP loading onto wildtype Rac1 – biochemical, pyrazoline analogs, multiplex, flow cytometry, Ki, SAR follow-up (AID 2055)). Settings: Rac1-GST beads, Bodipy-FL-GTP binding, Ki calculated from EC50.

Compound | Ki
O=C(O)c1ccc(N2N=C(c3ccccc3)CC2c2ccccc2)cc1 (stereo unspecified) | 5110 nM
Brc1ccc(N2N=C(c3ccccc3)CC2c2ccccc2)cc1 (stereo unspecified) | 890 nM
COc1ccc(C2CC(c3ccc(F)cc3)=NN2c2cc(Cl)ccc2Cl)cc1 (stereo unspecified) | 10 nM
CN(C)c1ccc(C2CC(c3ccccc3)=NN2c2ccc([N+](=O)[O-])cc2)cc1 (stereo unspecified) | 1900 nM
COc1ccc(C2CC(c3ccccc3)=NN2c2ccc(S(N)(=O)=O)cc2)cc1OC (stereo unspecified) | 1240 nM
CC(=O)Oc1ccc(C2=NN(c3ccccc3)C(c3ccccc3)C2)cc1 (stereo unspecified) | 530 nM
